Tests used:
[1] = system: domestic flies; experiment: Insecticidal activity on flies, large-scale test in living and production premises; assay type: in vivo; details: 0.1% aqueous solution with 5% glucose, 2-3 dishes per 20 m^2, living and production premises; 72 hours
Experimental: (§1) Based on the compound there was prepared an insecticidal composition in the form of a 0.1% solution thereof in a 5% aqueous glucose solution. The activity of the insecticidal composition, according to the invention was tested on domestic flies. To this end, into the gauze-made boxes of 10x10 cm in size (6 boxes) 6-7-day flies of both sexes were placed at the rate of 50 individuals per each box. Into 5 boxes there were placed Petri dishes with a 5% aqueous glycose solutiono An insecticidal activity of the composition, according to the invention, was tested in com- parison with an insecticidal composition based on 0,0-dimethyl(1-hydroxy-2,2,2-trichloroethyl)phosphonate. The tests were also conducted in living and production premises. For this, Petri dishes containing a 0.1% aqueous solution of the insecticide of the invention, to which a 5% glucose solution was added, were put at a rate of 2-3 dishes per 20 m^2. The activity of the composition, according to the invention, was evaluated by a direct count of dead insects in 72 hours or by using the adhesive tapes and counting the number of flies on the tape prior and after the test.

[2] = system: domestic flies; experiment: Insecticidal activity on domestic flies, laboratory test (gauze boxes); assay type: in vivo; details: 0.1% solution in 5% aqueous glucose solution; 50 flies per box; count in 72 hours
Experimental: as §1

[3] = Solubility (qualitative); details: water, alcohols, acetone
[4] = system: Botrytis allii; experiment: Inhibition of phytopathogenic fungi, field test on affected potato plants; assay type: in vivo; details: 5 m^2 plots of affected potato plants sprayed
From the text: (§2) For field tests the plots of 5 m^2 in size with potato plants affected by Fusarium moniliforme, Venturia inaequalis, Rhyzoctonia violaceae, Botrytis cinereae, Verticillium albo-atrum, Diplodia zeae, Fusarium oxysporum, Rhoma betae, Rhyzoctonia aderholdii, Aspergillus niger, Alternaria sobani, Botrytis allii, Aspergillus fumigatis, Fusarium culmorum, Penicillium cyclopium were sprayed with the fungicide of the invention. To compare, the similar plots of the affected potato plants were aprayed with the known compositions indicated above.

[5] = system: Aspergillus fumigatis; experiment: as above; assay type: in vivo; details: 5 m^2 plots of affected potato plants sprayed
From the text: as §2

[6] = system: Verticillium albo-atrum; experiment: as above; assay type: in vivo; details: 5 m^2 plots of affected potato plants sprayed
From the text: as §2

[7] = system: Fusarium moniliforme; experiment: as above; assay type: in vivo; details: 5 m^2 plots of affected potato plants sprayed
From the text: as §2

[8] = system: Rhoma betae; experiment: as above; assay type: in vivo; details: 5 m^2 plots of affected potato plants sprayed
From the text: as §2

[9] = system: Penicillium cyclopium; experiment: as above; assay type: in vivo; details: 5 m^2 plots of affected potato plants sprayed
From the text: as §2

[10] = system: Fusarium oxysporum; experiment: as above; assay type: in vivo; details: 5 m^2 plots of affected potato plants sprayed
From the text: as §2

[11] = system: Aspergillus niger; experiment: as above; assay type: in vivo; details: 5 m^2 plots of affected potato plants sprayed
From the text: as §2

[12] = system: Alternaria sobani; experiment: as above; assay type: in vivo; details: 5 m^2 plots of affected potato plants sprayed
From the text: as §2

[13] = system: Rhyzoctonia violaceae; experiment: as above; assay type: in vivo; details: 5 m^2 plots of affected potato plants sprayed
From the text: as §2

[14] = system: Botrytis cinereae; experiment: as above; assay type: in vivo; details: 5 m^2 plots of affected potato plants sprayed
From the text: as §2

[15] = system: Fusarium culmorum; experiment: as above; assay type: in vivo; details: 5 m^2 plots of affected potato plants sprayed
From the text: as §2

[16] = system: Rhyzoctonia aderholdii; experiment: as above; assay type: in vivo; details: 5 m^2 plots of affected potato plants sprayed
From the text: as §2

[17] = system: Venturia inaequalis; experiment: as above; assay type: in vivo; details: 5 m^2 plots of affected potato plants sprayed
From the text: as §2

[18] = system: Diplodia zeae; experiment: as above; assay type: in vivo; details: 5 m^2 plots of affected potato plants sprayed
From the text: as §2

[19] = system: Botrytis allii; experiment: Inhibition of phytopathogenic fungi growth, laboratory test on potato-dextrose agar; assay type: cell-based; details: active principle 0.01 % by mass in potato-dextrose agar
Experimental: (§3) A fungicidal composition based on this compound was prepared in the form of a 0.01% solution thereof in distilled water. A fungicidal action of the composition, according to the invention, was tested for inhibition of vegetative fungi growth such as Fusarium moniliforme, Ventura inaequalis, Rhyzoctonia ciolaceae, Botrytis cinereae, Verticillium albo-atrum, Diplodia zeae, Fusarium oxysporum, Rhoma betae, Rhyzoctonia aderholdii, Aspergillus niger, Alternaria sobani, Botrytis allii, Aspergillus fumigatis, Fusarium culmorum, Penicillium cyclopium affecting potato, sugar beet, cotton seeds either in laboratory or field conditions. For testing it to the Petri dishes containing potato-dextrose agar the composition of the invention was.added at the concentration of an active principle of 0.01 % by mass. The Petri dishes containing the same agar culture were inoculated with a mycelium of phytopathogenic fungi. For control dishes the phytopathogenic fungi were inoculated on agar without using the composition of the invention. A fungicidal effect of the composition, according to the invention was tested in comparison with the known fungicidal compositions based on 2,3-dichloro-1,4-naphthoquinone, zinc N,N'-ethylene-bis-dithiocarbamate and tetramethylthiuram disulphide.

[20] = system: Aspergillus fumigatis; experiment: as above; assay type: cell-based; details: active principle 0.01 % by mass in potato-dextrose agar
Experimental: as §3

[21] = system: Verticillium albo-atrum; experiment: as above; assay type: cell-based; details: active principle 0.01 % by mass in potato-dextrose agar
Experimental: as §3

[22] = system: Fusarium moniliforme; experiment: as above; assay type: cell-based; details: active principle 0.01 % by mass in potato-dextrose agar
Experimental: as §3

[23] = system: Rhoma betae; experiment: as above; assay type: cell-based; details: active principle 0.01 % by mass in potato-dextrose agar
Experimental: as §3

[24] = system: Penicillium cyclopium; experiment: as above; assay type: cell-based; details: active principle 0.01 % by mass in potato-dextrose agar
Experimental: as §3

[25] = system: Fusarium oxysporum; experiment: as above; assay type: cell-based; details: active principle 0.01 % by mass in potato-dextrose agar
Experimental: as §3

[26] = system: Aspergillus niger; experiment: as above; assay type: cell-based; details: active principle 0.01 % by mass in potato-dextrose agar
Experimental: as §3

[27] = system: Alternaria sobani; experiment: as above; assay type: cell-based; details: active principle 0.01 % by mass in potato-dextrose agar
Experimental: as §3

[28] = system: Rhyzoctonia violaceae; experiment: as above; assay type: cell-based; details: active principle 0.01 % by mass in potato-dextrose agar
Experimental: as §3

[29] = system: Botrytis cinereae; experiment: as above; assay type: cell-based; details: active principle 0.01 % by mass in potato-dextrose agar
Experimental: as §3

[30] = system: Fusarium culmorum; experiment: as above; assay type: cell-based; details: active principle 0.01 % by mass in potato-dextrose agar
Experimental: as §3

[31] = system: Rhyzoctonia aderholdii; experiment: as above; assay type: cell-based; details: active principle 0.01 % by mass in potato-dextrose agar
Experimental: as §3

[32] = system: Venturia inaequalis; experiment: as above; assay type: cell-based; details: active principle 0.01 % by mass in potato-dextrose agar
Experimental: as §3

[33] = system: Diplodia zeae; experiment: as above; assay type: cell-based; details: active principle 0.01 % by mass in potato-dextrose agar
Experimental: as §3

Row | Structure (SMILES) | Death of flies, % tests large-scale [1] [%] | Death of flies, % tests laboratory [2] [%] | solubility [3] | Inhibition of growth of phytopathogenic fungi colonies, % Aspergillus fumigatis Tests field [5] [%] | Inhibition of growth of phytopathogenic fungi colonies, % Rhoma betae test field [8] [%] | Inhibition of growth of phytopathogenic fungi colonies, % Penicillium cyclopium Tests field [9] [%] | Inhibition of growth of phytopathogenic fungi colonies, % Aspergillus niger test field [11] [%] | Inhibition of growth of phytopathogenic fungi colonies, % Fusarium culmorum Tests field [15] [%] | Inhibition of growth of phytopathogenic fungi colonies, % Rhyzoctonia aderholdii test field [16] [%] | Inhibition of growth of phytopathogenic fungi colonies, % Aspergillus fumigatis Tests laboratory [20] [%] | Inhibition of growth of phytopathogenic fungi colonies, % Rhoma betae test laboratory [23] [%] | Inhibition of growth of phytopathogenic fungi colonies, % Penicillium cyclopium Tests laboratory [24] [%] | Inhibition of growth of phytopathogenic fungi colonies, % Aspergillus niger test laboratory [26] [%] | Inhibition of growth of phytopathogenic fungi colonies, % Fusarium culmorum Tests laboratory [30] [%] | Inhibition of growth of phytopathogenic fungi colonies, % Rhyzoctonia aderholdii test laboratory [31] [%] | other results
1 | O=C(NP(=O)(Nc1ccccc1Cl)Nc1ccccc1Cl)c1ccc(Br)cc1 [Example 5, para-bromo- bensoylamidophosphoric acid di-ortho-chloranilide] | 100 | 100 |  |  |  |  |  |  |  |  |  |  |  |  |  | 
2 | O=C(NP(=O)(Nc1ccc(Cl)cc1Cl)Nc1ccc(Cl)cc1Cl)c1ccc(Br)cc1 [Example 6, para-bromobenzoilamidophosphoric acid di-2,4-dichloranilide] | 100 | 100 | soluble in water, alcohols, acetone |  |  |  |  |  |  |  |  |  |  |  |  | 
3 | COP(=O)(NC(=O)c1ccc(Cl)c([N+](=O)[O-])c1)OC [Example 7, dimethyl ether of 3-mitro-4-chlorobenzoylamidiphos-phoric acid] | 75 | 76 | soluble in water, alcohols, acetone |  |  |  |  |  |  |  |  |  |  |  |  | 
4 | CCOP(=O)(NC(=O)c1ccc(Cl)c([N+](=O)[O-])c1)OCC [Example 8, diethyl ether of 3-nitro-4-chlorobenzoylamidophosphoric acid] | 97 | 98 | soluble in water, alcohols, acetone |  |  |  |  |  |  |  |  |  |  |  |  | 
5 | O=C(NP(=O)(Nc1ccc(Cl)cc1Cl)Nc1ccc(Cl)cc1Cl)c1ccc(Br)cc1 [Example 13, para-bromobenzoylamidophosphoric acid di-2,4-dichloroanil-ide] |  |  |  | 50 | 62 | 93 | 34 | 93 | 100 | 53 | 64 | 100 | 35 | 100 | 100 | Inhibition of growth of phytopathogenic fungi colonies, % Botrytis allii test field [4]: 100%; Inhibition of growth of phytopathogenic fungi colonies, % Verticillium albo--atrum test field [6]: 46%; Inhibition of growth of phytopathogenic fungi colonies, % Fusatium monili-forme test field [7]: 74%; Inhibition of growth of phytopathogenic fungi colonies, % Fusarium oxysporum test field [10]: 43%; Inhibition of growth of phytopathogenic fungi colonies, % Alternaria sobani test field [12]: 100%; Inhibition of growth of phytopathogenic fungi colonies, % Rhyzoctonia violaceae test field [13]: 47%; Inhibition of growth of phytopathogenic fungi colonies, % Botrytis cinereae test field [14]: 0%; Inhibition of growth of phytopathogenic fungi colonies, % Venturia inaequalis test field [17]: 44%; Inhibition of growth of phytopathogenic fungi colonies, % Diplodia zeae test field [18]: 100%; Inhibition of growth of phytopathogenic fungi colonies, % Botrytis allii test laboratory [19]: 100%; Inhibition of growth of phytopathogenic fungi colonies, % Verticillium albo--atrum test laboratory [21]: 47%; Inhibition of growth of phytopathogenic fungi colonies, % Fusatium monili-forme test laboratory [22]: 75%; Inhibition of growth of phytopathogenic fungi colonies, % Fusarium oxysporum test laboratory [25]: 44%; Inhibition of growth of phytopathogenic fungi colonies, % Alternaria sobani test laboratory [27]: 100%; Inhibition of growth of phytopathogenic fungi colonies, % Rhyzoctonia violaceae test laboratory [28]: 46%; Inhibition of growth of phytopathogenic fungi colonies, % Botrytis cinereae test laboratory [29]: 0%; Inhibition of growth of phytopathogenic fungi colonies, % Venturia inaequalis test laboratory [32]: 45%; Inhibition of growth of phytopathogenic fungi colonies, % Diplodia zeae test laboratory [33]: 100%
6 | CN(C)C(=S)SSC(=S)N(C)C [tetramethylthi-uram disulphide, tetramethylthiuram disulphide, reference compound] |  |  |  | 80 | 59 | 64 | 98 | 98 | 99 | 81 | 60 | 65 | 100 | 100 | 100 | 

— patent publication EP0407583A1, “DERIVATIVES OF DICHLOR[…] ACYLAMIDO[…] AND INSECTICIDAL, FU[…] HEMATOCIDAL PREPARATIONS BASED ON THEM” (priority 1989, dated 1990)
